Experiment in all cases: KINOMEscan
Assay type in all cases: binding
Common to all, as to conditions: read-out: % control activity remaining

The target of one test is T1, ICK (Homo sapiens, UniProt Q9UPZ9).
T1 construct: purchased Eurofins DiscoverX KINOMEscan
T1 sequence (Q9UPZ9 1-632): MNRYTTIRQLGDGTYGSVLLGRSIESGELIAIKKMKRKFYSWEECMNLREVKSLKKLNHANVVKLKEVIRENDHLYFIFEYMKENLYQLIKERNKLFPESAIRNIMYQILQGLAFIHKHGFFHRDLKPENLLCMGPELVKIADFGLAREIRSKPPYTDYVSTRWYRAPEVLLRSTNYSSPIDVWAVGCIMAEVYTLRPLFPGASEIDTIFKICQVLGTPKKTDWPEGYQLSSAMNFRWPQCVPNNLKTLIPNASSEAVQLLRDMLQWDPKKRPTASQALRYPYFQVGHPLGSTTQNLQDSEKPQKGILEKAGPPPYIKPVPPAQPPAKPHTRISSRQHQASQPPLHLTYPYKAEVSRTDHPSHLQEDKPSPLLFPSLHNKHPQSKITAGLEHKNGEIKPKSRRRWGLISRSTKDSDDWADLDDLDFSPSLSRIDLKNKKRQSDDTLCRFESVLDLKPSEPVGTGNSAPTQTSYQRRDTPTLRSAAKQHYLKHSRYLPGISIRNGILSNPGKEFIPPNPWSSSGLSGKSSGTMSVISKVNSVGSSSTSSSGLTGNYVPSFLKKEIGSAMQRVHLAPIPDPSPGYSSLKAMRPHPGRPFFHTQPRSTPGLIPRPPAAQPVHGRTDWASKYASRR

For another test, the target named is T2, MAP3K15 (Homo sapiens, UniProt Q6ZN16).
T2 construct: purchased Eurofins DiscoverX KINOMEscan
T2 sequence (Q6ZN16 1-1313): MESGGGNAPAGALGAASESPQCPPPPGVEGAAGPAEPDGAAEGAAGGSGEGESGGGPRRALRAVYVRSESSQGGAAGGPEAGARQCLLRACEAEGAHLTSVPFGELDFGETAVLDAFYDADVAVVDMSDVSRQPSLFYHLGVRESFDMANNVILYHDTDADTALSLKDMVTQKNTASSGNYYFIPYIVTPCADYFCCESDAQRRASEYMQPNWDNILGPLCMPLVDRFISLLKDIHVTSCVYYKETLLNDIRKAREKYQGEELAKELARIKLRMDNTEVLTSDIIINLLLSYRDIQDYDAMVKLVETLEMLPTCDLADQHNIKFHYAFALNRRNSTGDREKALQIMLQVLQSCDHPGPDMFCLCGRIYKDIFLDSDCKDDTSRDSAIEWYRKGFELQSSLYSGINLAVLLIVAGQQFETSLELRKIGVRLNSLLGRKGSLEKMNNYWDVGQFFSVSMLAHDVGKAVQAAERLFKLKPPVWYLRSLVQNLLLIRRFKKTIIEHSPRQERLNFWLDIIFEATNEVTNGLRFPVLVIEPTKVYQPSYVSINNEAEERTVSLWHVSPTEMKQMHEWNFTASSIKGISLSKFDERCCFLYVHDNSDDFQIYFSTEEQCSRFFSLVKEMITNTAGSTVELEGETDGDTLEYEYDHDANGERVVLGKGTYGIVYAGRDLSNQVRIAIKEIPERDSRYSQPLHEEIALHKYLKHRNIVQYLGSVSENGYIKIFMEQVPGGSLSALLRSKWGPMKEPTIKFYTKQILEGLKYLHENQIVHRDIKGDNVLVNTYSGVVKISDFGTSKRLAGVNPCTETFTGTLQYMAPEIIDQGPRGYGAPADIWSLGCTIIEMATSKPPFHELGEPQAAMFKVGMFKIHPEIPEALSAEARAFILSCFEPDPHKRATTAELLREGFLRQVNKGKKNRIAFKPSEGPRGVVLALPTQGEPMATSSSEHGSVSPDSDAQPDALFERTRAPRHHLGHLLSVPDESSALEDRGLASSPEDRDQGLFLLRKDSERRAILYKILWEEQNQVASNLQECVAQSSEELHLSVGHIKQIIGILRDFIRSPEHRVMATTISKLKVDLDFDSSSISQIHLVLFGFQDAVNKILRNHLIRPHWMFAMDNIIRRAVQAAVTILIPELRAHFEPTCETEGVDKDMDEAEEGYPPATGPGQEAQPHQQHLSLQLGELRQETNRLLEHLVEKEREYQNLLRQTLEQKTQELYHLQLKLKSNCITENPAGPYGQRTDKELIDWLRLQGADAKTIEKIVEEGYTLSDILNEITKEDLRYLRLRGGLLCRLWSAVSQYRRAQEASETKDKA

A further test deals with T3, NLK (Homo sapiens, UniProt Q9UBE8).
T3 construct: purchased Eurofins DiscoverX KINOMEscan
T3 sequence (Q9UBE8 1-527): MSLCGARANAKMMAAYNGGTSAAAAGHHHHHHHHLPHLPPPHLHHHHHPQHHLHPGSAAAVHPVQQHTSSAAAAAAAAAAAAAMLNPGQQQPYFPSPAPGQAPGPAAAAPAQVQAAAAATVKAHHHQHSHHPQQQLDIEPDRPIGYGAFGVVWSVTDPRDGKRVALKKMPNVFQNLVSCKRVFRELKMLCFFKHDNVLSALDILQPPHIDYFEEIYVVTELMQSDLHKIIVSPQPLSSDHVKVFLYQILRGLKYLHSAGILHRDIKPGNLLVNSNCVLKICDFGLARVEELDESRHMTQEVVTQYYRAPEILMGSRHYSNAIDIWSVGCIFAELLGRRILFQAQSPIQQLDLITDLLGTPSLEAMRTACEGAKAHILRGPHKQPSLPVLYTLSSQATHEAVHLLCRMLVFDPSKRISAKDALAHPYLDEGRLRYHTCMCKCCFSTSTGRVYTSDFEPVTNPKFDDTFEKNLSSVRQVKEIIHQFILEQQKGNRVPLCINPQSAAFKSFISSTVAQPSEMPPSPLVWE

The next test has as its target T4, PIK3CG (Homo sapiens, UniProt P48736).
T4 construct: purchased Eurofins DiscoverX KINOMEscan

T4 sequence (P48736 whole entry): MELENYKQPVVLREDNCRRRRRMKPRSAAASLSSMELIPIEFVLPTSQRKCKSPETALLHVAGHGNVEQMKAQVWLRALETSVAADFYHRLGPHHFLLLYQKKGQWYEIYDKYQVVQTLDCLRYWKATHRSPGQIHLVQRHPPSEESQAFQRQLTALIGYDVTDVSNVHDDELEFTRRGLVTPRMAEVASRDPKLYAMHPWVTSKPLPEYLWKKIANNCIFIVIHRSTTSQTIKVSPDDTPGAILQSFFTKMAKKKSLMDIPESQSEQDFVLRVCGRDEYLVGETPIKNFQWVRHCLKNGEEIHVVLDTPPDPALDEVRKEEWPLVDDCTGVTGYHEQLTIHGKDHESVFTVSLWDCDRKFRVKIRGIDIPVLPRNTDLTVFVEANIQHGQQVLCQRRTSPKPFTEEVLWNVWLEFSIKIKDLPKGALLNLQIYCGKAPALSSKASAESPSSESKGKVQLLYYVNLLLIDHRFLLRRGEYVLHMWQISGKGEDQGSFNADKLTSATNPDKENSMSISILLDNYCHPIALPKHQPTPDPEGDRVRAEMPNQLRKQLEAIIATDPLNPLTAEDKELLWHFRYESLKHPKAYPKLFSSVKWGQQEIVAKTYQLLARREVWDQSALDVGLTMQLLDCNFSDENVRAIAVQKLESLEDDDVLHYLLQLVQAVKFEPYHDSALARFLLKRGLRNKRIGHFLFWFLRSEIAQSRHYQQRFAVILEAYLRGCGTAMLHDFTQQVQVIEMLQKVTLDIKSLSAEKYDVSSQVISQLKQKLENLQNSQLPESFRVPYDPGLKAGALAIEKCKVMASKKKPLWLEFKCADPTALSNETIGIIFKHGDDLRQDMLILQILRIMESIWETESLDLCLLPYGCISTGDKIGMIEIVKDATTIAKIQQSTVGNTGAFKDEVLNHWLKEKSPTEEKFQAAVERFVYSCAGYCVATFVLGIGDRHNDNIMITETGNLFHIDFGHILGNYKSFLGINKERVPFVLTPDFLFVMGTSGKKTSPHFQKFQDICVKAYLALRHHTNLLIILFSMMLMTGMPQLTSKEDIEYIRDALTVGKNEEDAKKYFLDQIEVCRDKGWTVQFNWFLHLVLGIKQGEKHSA

Turning to `Clc1cc(NCC2CC2)c2ncc(-c3ccc4[nH]ncc4c3)n2n1` [compound 2, 6-Chloro-N-(cyclopropylmethyl)-3-(1H-indazol-5-yl)imidazo[1,2-b]pyridazin-8-amine], the remaining binding at 1 µM worked out at 80% at ICK, 83% at MAP3K15, 70% on NLK and 78% on PIK3CG.

Consider `O=C(CN1CCOCC1)N[C@H]1CC[C@H](Nc2cc(Cl)nn3c(-c4ccc5[nH]ncc5c4)cnc23)CC1` [compound 26], for which the remaining binding at 1 µM at ICK was 74%; at MAP3K15, 98%; on NLK it was 100%; on PIK3CG, 100%.

Consider `CN1CCC(CNc2cc(Cl)nn3c(-c4cc5nc(Nc6ccccc6)[nH]c5cc4F)cnc23)CC1` [compound 31, 6-Chloro-3-(6-fluoro-2-(phenylamino)-1H-benzo[d]imidazol-5-yl)-N-((1-methylpiperidin-4-yl)methyl)imidazo[1,2-b]pyridazin-8-amine], for which the remaining binding at 1 µM at ICK came to 97%; on MAP3K15 it was 100%; at NLK, 100%; on PIK3CG it was 100%.

The values above are taken from paper PMC6437697 (Journal of Medicinal Chemistry, 2019).
